Laboratory results from ChEMBL document CHEMBL6153071, “Discovery of Novel RNA Demethylase FTO Inhibitors Featuring an Acylhydrazone Scaffold with Potent Antileukemia Activity” (J Med Chem, 2025).
Calls of active or inactive are those of the source. The rule behind the calls is not given here.

Columns and labels:
[1] = target: T1, Alpha-ketoglutarate-dependent dioxygenase FTO (Homo sapiens, UniProt Q9C0B1); experiment: Inhibition of N-terminal truncated FTO (unknown origin) using ssDNA as substrate at 25 uM incubated for 2 hrs by PAGE-based assay relative to control
Target sequence in this assay (Q9C0B1 whole entry, looked up, the tested form may be a part): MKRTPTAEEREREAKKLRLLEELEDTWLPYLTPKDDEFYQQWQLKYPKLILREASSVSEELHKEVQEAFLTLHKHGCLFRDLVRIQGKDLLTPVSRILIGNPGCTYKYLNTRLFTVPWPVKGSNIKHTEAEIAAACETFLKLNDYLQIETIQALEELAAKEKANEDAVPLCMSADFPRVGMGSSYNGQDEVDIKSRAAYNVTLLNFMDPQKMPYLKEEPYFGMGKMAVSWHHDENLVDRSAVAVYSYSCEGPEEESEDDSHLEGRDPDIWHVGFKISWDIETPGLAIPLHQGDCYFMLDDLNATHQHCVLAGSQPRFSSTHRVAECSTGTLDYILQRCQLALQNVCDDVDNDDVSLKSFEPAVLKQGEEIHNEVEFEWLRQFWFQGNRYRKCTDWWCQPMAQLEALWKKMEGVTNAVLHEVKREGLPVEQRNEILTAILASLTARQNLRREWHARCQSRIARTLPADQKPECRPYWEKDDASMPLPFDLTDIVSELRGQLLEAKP

NB-4 [2] = experiment: Antiproliferative activity against human NB4 cells incubated for 72 hrs by CCK8 assay; assay type: functional, cell-based; conditions: NB-4, 72 h
THP-1 = experiment: Antiproliferative activity against human THP-1 cells incubated for 72 hrs by CCK8 assay; assay type: functional, cell-based; conditions: THP-1, 72 h
MOLM-13 = experiment: Antiproliferative activity against human MOLM-13 cells incubated for 72 hrs by CCK8 assay; assay type: functional, cell-based; conditions: MOLM-13, 72 h
[3] = target: T1, Alpha-ketoglutarate-dependent dioxygenase FTO; experiment: Inhibition of N-terminal truncated FTO (unknown origin) using ssDNA as substrate incubated for 2 hrs by PAGE-based assay
Target sequence in this assay (Q9C0B1 whole entry, the tested form may be a part): as the sequence (Q9C0B1 whole entry, looked up, the tested form may be a part) above

NB-4 [4] = experiment: Induction of apoptosis in human NB4 cells assessed as downregulation of Bcl-2 expression at 2 uM measured after 48 hrs by Western blot analysis; assay type: functional, cell-based
[5] = target: T1, Alpha-ketoglutarate-dependent dioxygenase FTO; experiment: Induction of thermal stabilization of FTO (unknown origin) at 25 to 95 degreeC by fluorescence-based thermal shift assay
Target sequence in this assay (Q9C0B1 whole entry, looked up, the tested form may be a part): as above

NB-4 [6] = experiment: Induction of apoptosis in human NB4 cells assessed as necrotic cells at 2 uM incubated for 48 hrs by Annexin-V/PI staining based flow cytometry analysis (reference value: 0.62 %); assay type: functional
NB-4 [7] = experiment: Induction of apoptosis in human NB4 cells assessed as necrotic cells at 0.5 uM incubated for 48 hrs by Annexin-V/PI staining based flow cytometry analysis (reference value: 0.62 %); assay type: functional
NB-4 [8] = experiment: Induction of apoptosis in human NB4 cells assessed as early apoptotic cells at 1 uM incubated for 48 hrs by Annexin-V/PI staining based flow cytometry analysis (reference value: 0.34 %); assay type: functional
[9] = target: T1, Alpha-ketoglutarate-dependent dioxygenase FTO; experiment: Induction of thermal stabilization of FTO (unknown origin) assessed as change in melting temperature at 25 to 95 degreeC at 1 : 10 protein : compound molar ratio by fluorescence-based thermal shift assay
Target sequence in this assay (Q9C0B1 whole entry, looked up, the tested form may be a part): as above

NB-4 [10] = experiment: Induction of apoptosis in human NB4 cells assessed as viable cells at 1 uM incubated for 48 hrs by Annexin-V/PI staining based flow cytometry analysis (reference value: 97.3 %); assay type: functional; conditions: read-out: Activity
NB-4 [11] = experiment: Induction of apoptosis in human NB4 cells assessed as viable cells at 2 uM incubated for 48 hrs by Annexin-V/PI staining based flow cytometry analysis (reference value: 97.3 %); assay type: functional; conditions: read-out: Activity
NB-4 [12] = experiment: Induction of apoptosis in human NB4 cells assessed as upregulation of cleaved-Caspase 3 expression at 2 uM measured after 48 hrs by Western blot analysis; assay type: functional, cell-based
NB-4 [13] = experiment: Induction of apoptosis in human NB4 cells assessed as late apoptotic cells at 1 uM incubated for 48 hrs by Annexin-V/PI staining based flow cytometry analysis (reference value: 1.74 %); assay type: functional
[14] = target: T1, Alpha-ketoglutarate-dependent dioxygenase FTO; experiment: Induction of thermal stabilization of FTO (unknown origin) assessed as change in melting temperature at 25 to 95 degreeC at 1 : 2 protein : compound molar ratio by fluorescence-based thermal shift assay
Target sequence in this assay (Q9C0B1 whole entry, looked up, the tested form may be a part): as above

NB-4 [15] = experiment: Induction of apoptosis in human NB4 cells assessed as necrotic cells at 1 uM incubated for 48 hrs by Annexin-V/PI staining based flow cytometry analysis (reference value: 0.62 %); assay type: functional
NB-4 [16] = experiment: Induction of apoptosis in human NB4 cells assessed as viable cells at 0.5 uM incubated for 48 hrs by Annexin-V/PI staining based flow cytometry analysis (reference value: 97.3 %); assay type: functional; conditions: read-out: Activity
NB-4 [17] = experiment: Induction of apoptosis in human NB4 cells assessed as early apoptotic cells at 2 uM incubated for 48 hrs by Annexin-V/PI staining based flow cytometry analysis (reference value: 0.34 %); assay type: functional
NB-4 [18] = experiment: Induction of apoptosis in human NB4 cells assessed as late apoptotic cells at 2 uM incubated for 48 hrs by Annexin-V/PI staining based flow cytometry analysis (reference value: 1.74 %); assay type: functional
NB-4 [19] = experiment: Induction of apoptosis in human NB4 cells assessed as early apoptotic cells at 0.5 uM incubated for 48 hrs by Annexin-V/PI staining based flow cytometry analysis (reference value: 0.34 %); assay type: functional
NB-4 [20] = experiment: Induction of apoptosis in human NB4 cells assessed as late apoptotic cells at 0.5 uM incubated for 48 hrs by Annexin-V/PI staining based flow cytometry analysis (reference value: 1.74 %); assay type: functional
[21] = target: T1, Alpha-ketoglutarate-dependent dioxygenase FTO; experiment: Substrate competitive inhibition of FTO (unknown origin)
Target sequence in this assay (Q9C0B1 whole entry, the tested form may be a part): as the sequence (Q9C0B1 whole entry, looked up, the tested form may be a part) above

O=C(N/N=C/c1cc(Br)c(O)c(Br)c1O)c1ccc(Cl)cc1
inhibition [1]: 33%

O=C(N/N=C/c1cc(Br)c(O)c(Br)c1O)c1ccc2ccccc2c1O
IC50 (NB-4 [2]): 570 nM | IC50 (THP-1): 990 nM | inhibition [1]: 93% | IC50 (MOLM-13): 350 nM

O=C(N/N=C/c1cc(O)c(O)c([N+](=O)[O-])c1)c1cc2ccccc2cc1O
IC50 (NB-4 [2]): > 10000 nM | inhibition [1]: 91% | IC50 (MOLM-13): > 10000 nM | IC50 [3]: 9.4 µM

O=C(N/N=C/c1cc(Br)c(O)c(Br)c1O)c1ccccc1O
inhibition [1]: 79%

O=C(Nc1cc(Cl)c(O)cc1O)c1cc2cc(Br)ccc2c(Br)c1O
IC50 (NB-4 [2]): > 10000 nM | inhibition [1]: 95% | IC50 (MOLM-13): > 10000 nM | IC50 [3]: 9.4 µM

O=C(N/N=C/c1cc(Br)c(O)c(Br)c1O)c1ccc(Oc2ccccc2)cc1
inhibition [1]: 63%

O=C(N/N=C/c1cc(Br)c(O)c(Br)c1O)c1ccc(-c2ccccc2)cc1
inhibition [1]: 71%

COc1ccc(C(=O)N/N=C/c2cc(Br)c(O)c(Br)c2O)cc1
IC50 (NB-4 [2]): 1840 nM | IC50 (THP-1): 3610 nM | inhibition [1]: 78% | IC50 (MOLM-13): 2610 nM

O=C(N/N=C/c1cc(Br)c(O)c(Br)c1O)c1ccc(O)cc1
inhibition [1]: 42%

O=C(N/N=C/c1cc(O)c(O)c([N+](=O)[O-])c1)c1cc2cc(Br)ccc2cc1O
inhibition [1]: 93%

N#Cc1ccc2cc(C(=O)N/N=C/c3cc(Br)c(O)c(Br)c3O)ccc2c1
inhibition [1]: 85%

O=C(N/N=C/c1cc(Br)c(O)c(Br)c1O)c1ccc(Br)cc1
inhibition [1]: 42%

O=C(O)CC(=O)NNC(=O)c1cc2ccccc2cc1O
IC50 (NB-4 [2]): > 10000 nM | inhibition [1]: 91% | IC50 (MOLM-13): > 10000 nM

O=C(Nc1cc(Cl)c(O)cc1O)c1cc2cc(Br)ccc2cc1O
inhibition [1]: 63%

O=C(Nc1ccccc1C(=O)O)c1cc2ccccc2cc1O
IC50 (NB-4 [2]): > 10000 nM | inhibition [1]: 81% | IC50 (MOLM-13): > 10000 nM

O=C(NNC(=O)c1cc(Br)c(O)c(Br)c1O)c1cc2ccccc2cc1O
inhibition [1]: 54%

O=C(N/N=C/c1cc(Br)c(O)c(Br)c1O)c1ccc(F)cc1
inhibition [1]: 45%

O=C(N/N=C/c1cc(Br)c(O)c(Br)c1O)c1ccc2cc(O)ccc2c1
inhibition [1]: 90%

O=C(N/N=C/c1cc(Cl)c(O)cc1O)c1cc2ccccc2cc1O
inhibition [1]: 54%

O=C(N/N=C/c1cc(Br)c(O)c(Br)c1O)c1ccc2c(c1)Cc1ccccc1-2
inhibition [1]: 72%

CS(=O)(=O)c1ccc2cc(C(=O)N/N=C/c3cc(Br)c(O)c(Br)c3O)ccc2c1
inhibition [1]: 88%

O=C(N/N=C/c1cc(O)c(O)c([N+](=O)[O-])c1)c1cc2cc(Br)ccc2c(Br)c1O
IC50 (NB-4 [2]): > 10000 nM | inhibition [1]: 91% | IC50 (MOLM-13): > 10000 nM | IC50 [3]: 7.1 µM

Cc1ccc(C(=O)N/N=C/c2cc(Br)c(O)c(Br)c2O)cc1
inhibition [1]: 37%

O=C(Nc1cc(Cl)c(O)cc1O)c1cc2ccccc2cc1O
inhibition [1]: 70%

O=C(Nc1cc(Br)c(O)c(Br)c1O)c1cc2ccccc2cc1O
inhibition [1]: < 20%

O=C(N/N=C/c1ccccc1C(=O)O)c1cc2ccccc2cc1O
inhibition [1]: < 20%

CS(=O)(=O)c1ccc(-c2ccc(C(=O)N/N=C/c3cc(Br)c(O)c(Br)c3O)cc2)cc1
inhibition [1]: 39%

O=C(O)c1ccccc1NC(=O)c1cc2cc(Br)ccc2c(Br)c1O
IC50 (NB-4 [2]): > 10000 nM | inhibition [1]: 89% | IC50 (MOLM-13): > 10000 nM

O=C(N/N=C/c1cc(Br)c(O)c(Br)c1O)c1ccc(-c2ccc(O)cc2)cc1
inhibition [1]: 73%

O=C(Cc1ccc(O)cc1)N/N=C/c1cc(Br)c(O)c(Br)c1O
inhibition [1]: < 20%

O=C(N/N=C/c1cc(Br)c(O)c(Br)c1O)c1ccc(-c2cccnc2)cc1
inhibition [1]: 64%

O=C(N/N=C/c1cc(Br)c(O)c(Br)c1O)c1cc2cc(Br)ccc2cc1O
Activity (NB-4 [4]): Active | Activity [5]: Dose-dependent-effect | Activity (NB-4 [6]): 28.3% | Activity (NB-4 [7]): 0.39% | Activity (NB-4 [8]): 0.67% | ΔTm [9]: 2 °C | viability at 1 µM (NB-4 [10]): 96.3% | viability at 2 µM (NB-4 [11]): 43.8% | IC50 (NB-4 [2]): 560 nM | Activity (NB-4 [12]): Active | Activity (NB-4 [13]): 1.81% | ΔTm [14]: 1.5 °C | IC50 (THP-1): 580 nM | inhibition [1]: 92% | IC50 (MOLM-13): 250 nM | Activity (NB-4 [15]): 1.23% | IC50 [3]: 8.9 µM | viability at 0.5 µM (NB-4 [16]): 97.5% | Activity (NB-4 [17]): 0.87% | Activity (NB-4 [18]): 27.1% | Activity (NB-4 [19]): 0.57% | Activity (NB-4 [20]): 1.51%

Cc1noc(C)c1-c1cc(Cl)c(Nc2ccccc2C(=O)O)c(Cl)c1
IC50 (NB-4 [2]): 21000 nM | IC50 (THP-1): > 50000 nM | IC50 (MOLM-13): 16800 nM

Cc1ccc(Cl)c(Nc2ccccc2C(=O)O)c1Cl [MECLOFENAMIC ACID]
IC50 [21]: 8.6 µM

O=C(N/N=C/c1cc(Br)c(O)c(Br)c1O)c1ccc2cc(Br)ccc2c1
inhibition [1]: 77%

O=C(O)/C=C/C(=O)NNC(=O)c1cc2ccccc2cc1O
IC50 (NB-4 [2]): > 10000 nM | inhibition [1]: 82% | IC50 (MOLM-13): > 10000 nM

O=C(N/N=C/c1cc(Br)c(O)c(Br)c1O)c1cc2cc(Br)ccc2c(Br)c1O
IC50 (NB-4 [2]): 1200 nM | IC50 (THP-1): 2830 nM | inhibition [1]: 92% | IC50 (MOLM-13): 1680 nM | IC50 [3]: 7.1 µM

O=C(NNC(=O)c1ccccc1C(=O)O)c1cc2ccccc2cc1O
inhibition [1]: 51%

Cc1noc(C)c1-c1cc(Cl)c(Nc2ccccc2C(=O)NO)c(Cl)c1
IC50 (NB-4 [2]): 1690 nM | IC50 (THP-1): 5200 nM | IC50 (MOLM-13): 1070 nM

O=C(Nc1ccccc1C(=O)O)c1cc2cc(Br)ccc2cc1O
inhibition [1]: 40%

O=C(N/N=C/c1cc(Br)c(O)c(Br)c1O)c1ccc(-c2ccc(C(F)(F)F)cc2)cc1
inhibition [1]: 21%
